Results from US20210392890A1, “COMPOSITIONS COMPRISING PYRIDINE CARBOXYLATE HERBICIDES AND PLANT GROWTH REGULATORS” (Corteva Agriscience LLC, priority 2018, published 2021).
Where “and” joins values, the source holds several entries; their conditions need not be identical. Identical values can stand only once.

Assays:
Type in all cases: in vivo
[1] = system: Viola tricolor (wild pansy); experiment: Greenhouse postemergence herbicidal effect on VIOTR; conditions: for Herbicidal Effects (% visual injury) VIOTR Obs: Ethephon 0 g/ha
Description: (§1) Seeds of the desired test plant species were planted in a 90:10% v/v (volume/volume) mixture of PRO-MIX® BX (Premier Tech Horticulture, Quakertown, Pa., USA) and PROFILE® GREENS GRADE™ (Profile Products LLC, Buffalo Grove, Ill., USA) planting mixture, which typically has a pH of 5.2 to 6.2 and an organic matter content of at least 50 percent, in plastic pots with a surface area of 103.2 square centimeters (cm^2). In some aspects, to help ensure good germination and healthy plants, a fungicide treatment and/or other chemical or physical treatment was applied. The plants were grown for 7-36 days (d) in a greenhouse with an approximate 14-hour (h) photoperiod which was maintained at about 23° C. during the day and 22° C. during the night. Nutrients and water were added on a regular basis and supplemental lighting was provided with overhead metal halide 1000-Watt lamps as necessary. The plants were employed for testing when they reached the second or third true leaf stage.
(§2) Emulsifiable concentrates of each of each pyridine carboxylate herbicide (Compound A or Compound B) were prepared at 100 grams acid equivalent per liter (g ae/L). The emulsifiable concentrates also included a safener, cloquintocet-mexyl, at 120 grams active ingredient per liter (g ai/L). An aliquot of each emulsifiable concentrate was placed in a 25 mL glass vial and diluted with an aqueous mixture of 1.25% (v/v) ACTIROB® B esterified rapeseed oil (Bayer Crop Science, Research Triangle Park, N.C., USA) or MSO® Concentrate with LECI-TECH® methylated soybean oil (Loveland Products, Loveland, Colo., USA) to obtain concentrated stock solutions at the highest application rate for each herbicide, based upon a 12 milliliter (mL) application volume at a rate of 187 liters per hectare (L/ha). The concentrated stock solutions were further diluted with an aqueous mixture of 1.25% v/v ACTIROB® B or MSO® Concentrate with LECI-TECH® to obtain stock solutions at reduced application rates for each herbicide. Spray solutions of the herbicide combinations (Compound A or Compound B plus the PGR) were prepared by adding weighed amounts or aliquots of the PGR to the stock solutions of Compound A or Compound B to form 12-mL spray solutions in two-way combinations.
(§3) The spray solutions were applied to the plant material with an overhead Mandel track sprayer equipped with 8002E nozzles calibrated to deliver 187 L/ha over an application area of 0.503 square meters (m^2) at a spray height of 18 inches (43 centimeters (cm)) above the average plant canopy. Control plants were sprayed in the same manner with the solvent blank. All pyridine carboxylate herbicide (component a) application rates are given as “g ae/ha” and all PGR (component b) application rates are given as “g ai/ha.”
(§4) The treated plants and control plants were placed in a greenhouse as described above and watered by sub-irrigation to prevent wash-off of the test compounds. After 20-22 d, the condition of the test plants as compared with that of the control plants was determined visually and scored on a scale of 0 to 100 percent where 0 corresponds to no injury and 100 corresponds to complete kill.

[2] = system: Amaranthus retroflexus (pigweed); experiment: Greenhouse postemergence herbicidal effect on AMARE; conditions: for Herbicidal Effects (% visual injury) AMARE Obs: Ethephon 0 g/ha
Description: as §1, §2, §3, §4

[3] = system: Cirsium arvense (Canada thistle); experiment: Greenhouse postemergence herbicidal effect on CIRAR; conditions: for Herbicidal Effects (% visual injury) CIRAR Obs: Ethephon 0 g/ha
Description: as §1, §2, §3, §4

[4] = system: Veronica hederifolia (ivy-leaved speedwell); experiment: Greenhouse postemergence herbicidal effect on VERHE
Description: as §1
(§5) Emulsifiable concentrates of each of each pyridine carboxylate herbicide (Compound A or Compound B) were prepared at 100 grams acid equivalent per liter (g ae/L). The emulsifiable concentrates also included a safener, cloquintocet-mexyl, at 120 grams active ingredient per liter (g ai/L). […]
as §4

[5] = system: Matricaria chamomilla (wild chamomile); experiment: Greenhouse postemergence herbicidal effect on MATCH
Description: as §1, §5, §4

SMILES: N#CCOC(=O)c1nc(-c2ccc3cc[nH]c3c2F)c(F)c(N)c1Cl [Compound A, cyanomethyl 4-amino-3-chloro-5-fluoro-6-(7-fluoro-1H-indol-6-yl)pyridine-2-carboxylate]
- Herbicidal Effects (% visual injury) VIOTR Obs ([1]; Compound A 7.5 g/ha): 13%
- Herbicidal Effects (% visual injury) VIOTR Obs ([1]; Compound A 10 g/ha): 20%
- % visual injury Obs ([1]; herbicide 15 g ae/ha alone): 15%
- Herbicidal Effects (% visual injury) AMARE Obs ([2]; Compound A 7.5 g/ha): 99%
- Herbicidal Effects (% visual injury) AMARE Obs ([2]; Compound A 10 g/ha): 100%
- % visual injury Obs ([2]; herbicide 7.5 g ae/ha alone): 80% and 88%
- % visual injury Obs ([2]; herbicide 10 g ae/ha alone): 85% and 88%
- Herbicidal Effects (% visual injury) CIRAR Obs ([3]; Compound A 7.5 g/ha): 50%
- Herbicidal Effects (% visual injury) CIRAR Obs ([3]; Compound A 10 g/ha): 60%
- % visual injury Obs ([3]; herbicide 7.5 g ae/ha alone): 25% and 40% and 50%
- % visual injury Obs ([3]; herbicide 15 g ae/ha alone): 63%
- % visual injury Obs ([4]; herbicide 7.5 g ae/ha alone): 68%
- % visual injury Obs ([4]; herbicide 10 g ae/ha alone): 73%
- % visual injury Obs ([4]; herbicide 15 g ae/ha alone): 75%
- % visual injury Obs ([5]; herbicide 7.5 g ae/ha alone): 23%
- % visual injury Obs ([5]; herbicide 10 g ae/ha alone): 35%
- % visual injury Obs ([5]; herbicide 15 g ae/ha alone): 45%
